Experimental data: patent US6627743B1, “6-O-methylerythromycin A crystal form III” (Abbott Laboratories, priority 1999, dated 2003)

How the values were obtained:
[1] = Thermogravimetric analysis of the Form III solvate; format: physicochemical; settings: 6 milligram sample, nitrogen purge, increase of 5° C. per minute (FIG. 4)
Protocol: Suitable temperatures for the conversion of the Form III solvate to the Form II crystal structure of 6-O-methylerythromycin A can vary depending on the conditions of the reaction. […] At atmospheric pressure, the preferred temperatures for the conversion of the Form III solvate to Form II are from about 80° C. to about 180° C. The more preferred temperatures for the conversion are from about 90° C. to about 105° C. Thermogravimetric analysis was conducted in the following manner. A T.A. Instruments Hi-Res thermogravimetric analyzer with Thermogravimetric Analyzer module 2950 was used along with DuPont 2100 TGA software version 5.1 A. The analysis parameters were: sample weight 6.3640 milligrams; heating rate was room temperature to 200° C. at 5° C./minute under a nitrogen purge.

[2] = Crystal form of the recrystallized solid after drying/heating, by powder X-ray diffraction; format: physicochemical
Protocol: Solids from the recrystallization were prepared according to the methods described above and analyzed under standard conditions with a calibrated Scintag X-ray diffraction system.
The wet solid was allowed to dry at room temperature. The air-dried sample was analyzed and the powder X-ray diffraction data was consistent with the powder X-ray diffraction pattern of a 6-O-methylerythromycin A Form III crystal structure. The air-dried sample was heated to a temperature between about 40° C. to about 45° C. in a calibrated vacuum oven for five days at atmospheric pressure.
A wet solid sample obtained from the recrystallization was heated in a calibrated convection oven to a temperature between about 100° C. and 105° C. […] The testing conditions and the corresponding result are summarized below in Table 1.
Crystallographic data was obtained by solvate single crystal analysis using a Scintag XDS-2000 powder X-ray diffraction system. Samples for X-ray diffraction analysis were prepared by spreading the sample powder (with no prior grinding required) in a thin layer on the sample holder and gently flattening the sample with a microscope slide. A Scintag X-ray Diffraction system was used with the following parameters: X-ray source is CuKα; range is 2-35°; scan rate is 1.00 degree/minute; step size is 0.0300 degree; and wavelength is 1.54060 angstroms.

In the case of `CC[C@H]1OC(=O)[C@H](C)[C@@H](OC2CC(C)(OC)C(O)C(C)O2)[C@H](C)[C@@H](OC2OC(C)CC(N(C)C)C2O)[C@@](C)(OC)C[C@@H](C)C(=O)[C@H](C)[C@@H](O)[C@]1(C)O` (some centres unmarked) [Form III solvate, 6-O-methylerythromycin A acetonitrile solvate], the “Temperature of conversion of Form III solvate to Form II crystal structure” value [1] is reported as “about 175 °C”.

With `CC[C@H]1OC(=O)[C@H](C)[C@@H](OC2CC(C)(OC)C(O)C(C)O2)[C@H](C)[C@@H](OC2OC(C)CC(N(C)C)C2O)[C@@](C)(OC)C[C@@H](C)C(=O)[C@H](C)[C@@H](O)[C@]1(C)O` (some centres unmarked) [Sample 1, 6-O-methylerythromycin A acetonitrile solvate] the “Analytical Result (crystal form by powder X-ray diffraction)” value ([2]; wet solid from acetonitrile recrystallization) was “Form III spectra”.

For `CC[C@H]1OC(=O)[C@H](C)[C@@H](OC2CC(C)(OC)C(O)C(C)O2)[C@H](C)[C@@H](OC2OC(C)CC(N(C)C)C2O)[C@@](C)(OC)C[C@@H](C)C(=O)[C@H](C)[C@@H](O)[C@]1(C)O` (some centres unmarked) [Sample 2, 6-O-methylerythromycin A acetonitrile solvate], the “Analytical Result (crystal form by powder X-ray diffraction)” value ([2]; air dried solid, room temperature) was “Form III spectra”.

For `CC[C@H]1OC(=O)[C@H](C)[C@@H](OC2CC(C)(OC)C(O)C(C)O2)[C@H](C)[C@@H](OC2OC(C)CC(N(C)C)C2O)[C@@](C)(OC)C[C@@H](C)C(=O)[C@H](C)[C@@H](O)[C@]1(C)O` (some centres unmarked) [Sample 3, 6-O-methylerythromycin A acetonitrile solvate], the “Analytical Result (crystal form by powder X-ray diffraction)” value ([2]; heat 40° C.-45° C., 5 days) was “Form III spectra”.

With `CC[C@H]1OC(=O)[C@H](C)[C@@H](OC2CC(C)(OC)C(O)C(C)O2)[C@H](C)[C@@H](OC2OC(C)CC(N(C)C)C2O)[C@@](C)(OC)C[C@@H](C)C(=O)[C@H](C)[C@@H](O)[C@]1(C)O` (some centres unmarked) [Sample 4, 6-O-methylerythromycin A] the “Analytical Result (crystal form by powder X-ray diffraction)” value ([2]; heat to 100° C.-105° C., 24 hours) was “Form II spectra”.
